# Results reported in ChEMBL document CHEMBL1629460, “Image-based high-throughput drug screening targeting the intracellular stage of Trypanosoma cruzi, the agent of Chagas' disease” (Antimicrob Agents Chemother, 2010).
# Assays:
# [1] = Cytotoxicity against BESM cells after 88 hrs by HTS assay; type: ADME, cell-based; conditions: Bos taurus
# Trypanosoma cruzi = assay: Antitrypanosomal activity against Trypanosoma cruzi amastigotes infected in BESM cells measured after 88 hrs postinfection by HTS assay; type: functional, organism-based
# [2] = Selectivity window, ratio of EC50 for BESM cells to EC50 for Trypanosoma cruzi amastigotes infected in BESM cells; set-up: reference not given here
SMILES,EC50 [1] [µM],EC50 (Trypanosoma cruzi) [µM],Ratio EC50 [2]
Nc1c2c(nc3ccccc13)CCCC2 [TACRINE],> 50,24,>2.1
OCCN1CCN(CCCN2c3ccccc3Sc3ccc(Cl)cc32)CC1 [PERPHENAZINE],13,5,2.6
O=C(CCCN1CCC(O)(c2ccc(Cl)cc2)CC1)c1ccc(F)cc1 [HALOPERIDOL],33,7,4.7
CNCCC(Oc1ccc(C(F)(F)F)cc1)c1ccccc1 (stereo not given) [FLUOXETINE],16,7,2.3
C[C@@H]1C[C@H]2[C@@H]3CCC4=CC(=O)C=C[C@]4(C)C3=CC[C@]2(C)[C@H]1C(=O)CN1CCN(c2cc(N3CCCC3)nc(N3CCCC3)n2)CC1 [TIRILAZAD],> 50,28,>1.8
CCOC(=O)N1CCC(=C2c3ccc(Cl)cc3CCc3cccnc32)CC1 [LORATADINE],17,9,1.9
CC(C)[C@@]1(NC(=O)[C@@H]2C[C@@H]3c4cccc5[nH]cc(c45)C[C@H]3N(C)C2)O[C@@]2(O)[C@@H]3CCCN3C(=O)[C@H](Cc3ccccc3)N2C1=O.CS(=O)(=O)O [DIHYDROERGOCRISTINE MESYLATE],47,5,9.4
Cc1c(C)c2c(c(C)c1O)CCC(C)(CN1CCN(c3cc(N4CCCC4)nc(N4CCCC4)n3)CC1)O2 (stereo not given),> 50,17,>2.9
C[C@H]([C@](O)(Cn1cncn1)c1ccc(F)cc1F)S(C)(=O)=O [GENACONAZOLE],> 50,18,>2.8
C=CCN1CC[C@]23c4c5ccc(O)c4O[C@H]2/C(=N/N=C2\CC[C@@]4(O)[C@H]6Cc7ccc(O)c8c7[C@@]4(CCN6CC=C)[C@H]2O8)CC[C@@]3(O)[C@H]1C5 [NALOXONAZINE],16,17,0.9
O=C(c1ccc(OCCN2CCCCC2)cc1)c1c(-c2ccc(O)cc2)sc2cc(O)ccc12 [RALOXIFENE],22,10,2.2
Cc1c(O)cccc1C(=O)N[C@@H](CSc1ccccc1)[C@H](O)CN1C[C@H]2CCCC[C@H]2C[C@H]1C(=O)NC(C)(C)C,32,12,2.7
CN1[C@@H]2CC[C@H]1C[C@@H](OC(c1ccccc1)c1ccccc1)C2 [BENZTROPINE],46,17,2.7
CCN(CC)CCOCCC1=CCC2CC1C2(C)C (stereo not given) [MYRTECAINE],24,14,1.7
CC(C)N1CCN(c2ccc(OCC3COC(Cn4cncn4)(c4ccc(Cl)cc4Cl)O3)cc2)CC1 (stereo not given) [TERCONAZOLE],24,< 0.4,>60
COc1cc2nc(N3CCN(C(=O)c4ccco4)CC3)nc(N)c2cc1OC [PRAZOSIN],16,12,1.3
CN1CCCC(n2nc(Cc3ccc(Cl)cc3)c3ccccc3c2=O)CC1 (stereo not given) [AZELASTINE],49,1,49
C#C[C@]1(OC(C)=O)CC[C@H]2[C@@H]3CCC4=CC(=O)CC[C@@H]4[C@H]3CC[C@@]21C [NORETHINDRONE ACETATE],28,17,1.6
COc1ccccc1OCCNCC(O)COc1cccc2[nH]c3ccccc3c12 (stereo not given) [CARVEDILOL],31,8,3.9
CC(=O)O[C@]1(C(C)=O)CC[C@H]2[C@@H]3C=C(Cl)C4=CC(=O)[C@@H]5C[C@@H]5[C@]4(C)[C@H]3CC[C@@]21C [CYPROTERONE ACETATE],> 50,32,>1.6
COc1cc2nc(N3CCN(C(=O)C4COc5ccccc5O4)CC3)nc(N)c2cc1OC (stereo not given) [DOXAZOSIN],27,12,2.3
C=C(C)[C@H]1CN[C@H](C(=O)O)[C@H]1CC(=O)O [KAINIC ACID],13,3,4.3
OCCN1CCN(CCCN2c3ccccc3Sc3ccc(C(F)(F)F)cc32)CC1 [FLUPHENAZINE],21,4,5.3
Cc1ccc(NC(=O)c2ccc(CN3CCN(C)CC3)cc2)cc1Nc1nccc(-c2cccnc2)n1 [IMATINIB],32,9,3.6
CCc1nn(CCCN2CCN(c3cccc(Cl)c3)CC2)c(=O)n1CCOc1ccccc1 [NEFAZODONE],15,8,1.9

SMILES,EC50 [1] [µM],EC50 (Trypanosoma cruzi) [µM],Ratio EC50 [2]
CN(C)C(=O)C(CCN1CCC(O)(c2ccc(Cl)cc2)CC1)(c1ccccc1)c1ccccc1 [LOPERAMIDE],12,3,4
COc1ccc(CN2CCN(C(c3ccc(F)cc3)c3ccc(F)cc3)CC2)c(OC)c1OC [LOMERIZINE],22,9,2.4
CC[C@H](C)[C@H]1O[C@]2(C=C[C@@H]1C)C[C@@H]1C[C@@H](C/C=C(\C)[C@@H](O[C@H]3C[C@H](OC)[C@@H](O[C@H]4C[C@H](OC)[C@@H](O)[C@H](C)O4)[C@H](C)O3)[C@@H](C)/C=C/C=C3\CO[C@@H]4[C@H](O)C(C)=C[C@@H](C(=O)O1)[C@]34O)O2.CO[C@H]1C[C@H](O[C@H]2[C@H](C)O[C@@H](O[C@@H]3/C(C)=C/C[C@@H]4C[C@@H](C[C@]5(C=C[C@H](C)[C@@H](C(C)C)O5)O4)OC(=O)[C@@H]4C=C(C)[C@@H](O)[C@H]5OC/C(=C\C=C\[C@@H]3C)[C@]54O)C[C@@H]2OC)O[C@@H](C)[C@@H]1O [ABAMECTIN],12,4,3
CC(=O)O[C@@]12CO[C@@H]1C[C@H](O)[C@@]1(C)C(=O)[C@H](O)C3=C(C)[C@@H](OC(=O)[C@H](O)[C@@H](NC(=O)OC(C)(C)C)c4ccccc4)C[C@@](O)([C@@H](OC(=O)c4ccccc4)[C@H]21)C3(C)C.O.O.O [DOCETAXEL],44,< 0.8,>56
CCC(=O)O[C@]1(C(=O)CCl)[C@@H](C)C[C@H]2[C@@H]3CCC4=CC(=O)C=C[C@]4(C)[C@@]3(F)[C@@H](O)C[C@@]21C [CLOBETASOL PROPIONATE],41,25,1.6
Cc1cc2c(OCC(CNC(C)(C)C)OC(=O)c3ccccc3)cccc2[nH]1 (stereo not given) [BOPINDOLOL],> 50,40,>1.3
CN(C)CCCN1c2ccccc2CCc2ccc(Cl)cc21 [CLOMIPRAMINE],> 50,8,>6.3
C[C@@H]1C[C@@H]([C@H](O)CC2CC(=O)NC(=O)C2)C(=O)[C@@H](C)C1 [CYCLOHEXIMIDE],> 50,< 0.4,>125
NC(=O)N/N=C/c1ccc([N+](=O)[O-])o1 [NITROFURAZONE],> 50,8,>6.3
CN(C)CCCN1c2ccccc2Sc2ccccc21 [PROMAZINE],33,13,2.5
COc1cc(N)[nH]c2nc(-c3ccc(F)cc3)c(-c3ccncc3)c1-2,> 50,5,>10
"O=C(Nc1ccc(Cl)c(Cl)c1)c1cc(Cl)cc(Cl)c1O [3,3',4',5-TETRACHLOROSALICYLANILIDE]",26,8,3.3
c1ccc(Cn2ccnc2)cc1 [BENZYLIMIDAZOLE],> 50,35,>1.4
CCC1=C[C@@H]2CN(C1)Cc1c([nH]c3ccccc13)[C@@](C(=O)OC)(c1cc3c(cc1OC)N(C)[C@H]1[C@@](O)(C(=O)OC)[C@H](OC(C)=O)[C@]4(CC)C=CCN5CC[C@]31[C@@H]54)C2 [VINORELBINE],> 50,10,>5
O=C1OCCN1/N=C/c1ccc([N+](=O)[O-])o1 [FURAZOLIDONE],> 50,< 0.4,>125
c1ccc2c(c1)Nc1ccccc1S2 [PHENOTHIAZINE],26,6,4.3
CN1CCCN(C(c2ccccc2)c2ccc(Cl)cc2)CC1 (stereo not given) [HOMOCHLORCYCLIZINE],13,12,1.1
CC(C)[C@H]1C(=O)N2CCC[C@H]2[C@]2(O)O[C@](NC(=O)[C@@H]3C=C4c5cccc6[nH]cc(c56)C[C@H]4N(C)C3)(C(C)C)C(=O)N12 [ERGOCORNINE],43,18,2.4
COc1ccccc1N1CCN(CC(O)COc2cccc3ccccc23)CC1 (stereo not given) [NAFTOPIDIL],18,11,1.6
CN(C)CCC=C1c2ccccc2CCc2ccccc21 [AMITRIPTYLINE],23,12,1.9
COc1c(C)c2c(c(O)c1C/C=C(\C)CCC(=O)OCCN1CCOCC1)C(=O)OC2 [MYCOPHENOLATE MOFETIL],> 50,7,>7.1
CCCCCCCCCCCCC/C=C/[C@@H](O)[C@H](CO)NC(=O)CCCCCCC,11,13,0.8
CCCCOc1ccc(C(=O)CCN2CCCCC2)cc1.Cl [DYCLONINE HYDROCHLORIDE],36,15,2.4
CC(C)CC(N(C)C)C1(c2ccc(Cl)cc2)CCC1 (stereo not given) [SIBUTRAMINE],10,8,1.3
O=C(N/N=C/c1ccc([N+](=O)[O-])o1)c1cc([N+](=O)[O-])cc([N+](=O)[O-])c1O [NIFURSOL],> 50,15,>3.3
